The record followed here is patent US6506768B2, “Tetrahydro γ-carbolines” (Janssen Pharmaceutica N.V., priority 1997, dated 2003).

One test concerns the target T1, 5HT2 receptors (Rattus norvegicus, UniProt P14842).
T1 construct: 5HT2 receptors were measured in a rat frontal cortex membrane fraction; from tissue; host or cells: Wistar rat frontal cortex membrane fraction
Kind of test: 5HT2 binding in rat frontal cortex (radioligand binding, [3H]ketanserin). As to conditions: rat frontal cortex membrane fraction; 1 nM [3H]ketanserin; pIC50 = −log IC50, IC50 in M. The method, then:
(§1) 5HT2 receptors were measured by radioligand binding studies either in homogenates from rat brains or in a membranes fraction prepared from L929sA cells (mouse fibro carcinoma cells), stably transfected with human 5HT2A receptor cDNA.
5HT2 Binding in Rat Frontal Cortex
5HT2 receptors were measured in a rat frontal cortex membrane fraction. Herefore wistar rats were killed by decapitation, brains were removed and frontal cortex was dissected. The frontal cortex was homogenized in Tris-HCL buffer 50 mM pH7.7. The homogenate was centrifuged at 23.000 g for 10 minutes. The resulting pellet was washed twice by resuspension and recentrifugation and the pellet was finally suspended in Tris-HCL buffer 50 mM pH7.7 in a dilution of 100 (vol/wet weight of tissue). 400 μl of the homogenate was incubated with 1 nM [^3H]ketanserin in a total incubation volume of 0.5 ml for 30 minutes at 37° C. The incubation was stopped by rapid filtration using a manual filtration manifold. The filters were rinsed twice with ice-cold buffer and were counted in a liquid scintillation counter. Non-specific binding was determined in the presence of 1 μM methysergide.
(§2) Counting data from assays in the presence of test compound were automatically expressed as percent of total binding measured in the absence of test compound. Therefrom, the pIC50 (−log IC50)-values (IC50=concentration in M inhibiting 50% of the specific radioligand binding or neurotransmitter uptake) were derived and are listed in Table 9 (a “-” means “not measured”).

For a further test, the target named is T2, human 5HT2A receptor (Homo sapiens, UniProt P28223).
T2 construct: expressed in transfected cells; host or cells: L929sA cells (mouse fibro carcinoma cells), stably transfected, induced with m-interferon-b
Kind of test: 5HT2A binding in L929sA cells (radioligand binding, 125I ligand). As to conditions: membranes of L929sA cells expressing human 5HT2A receptors; 0.1 nM 125I radioligand; pIC50 = −log IC50, IC50 in M. As to the method: as §1
5HT2A Binding in L929sA Cells
L929sA cells expressing human 5HT2A receptors were cultured in Petri dishes in DMEM medium (Gibco cat.nr. 41965-039) enriched with 5% heat inactivated fetal calf serum and in the presence of penicillin and streptomycin sulphate. 24 h before collection, cells were induced with m-interferon-b (1000 U/ml medium). Cells were collected by scrapping and centrifugation at low speed (5 minutes at 1500 g). The cells were homogenized and centrifuged for 10 minutes at 23.000 g. The resulting pellet was diluted in Tris-HCl 50 mM pH 7.7 and stored at −70° C. On the day of the experiment, a vial was thawed and diluted in Tris-HCl buffer. 5HT2A receptors are labeled with 0.1 nM [^125I] 4-amino-N-[1-[3-(4-fluorophenoxy)propyl]-4-methyl-4-piperidinyl]-2-methoxybenzamide dihydrate. Membranes (0.2 ml) were incubated with the radioligand for 60 minutes at 37° C. in a total volume of 0.25 ml. The reaction was stopped by rapid filtration and the filter rounds were counted in an auto-gamma spectrophotometer.
as §2

T2 sequence (P28223 whole entry): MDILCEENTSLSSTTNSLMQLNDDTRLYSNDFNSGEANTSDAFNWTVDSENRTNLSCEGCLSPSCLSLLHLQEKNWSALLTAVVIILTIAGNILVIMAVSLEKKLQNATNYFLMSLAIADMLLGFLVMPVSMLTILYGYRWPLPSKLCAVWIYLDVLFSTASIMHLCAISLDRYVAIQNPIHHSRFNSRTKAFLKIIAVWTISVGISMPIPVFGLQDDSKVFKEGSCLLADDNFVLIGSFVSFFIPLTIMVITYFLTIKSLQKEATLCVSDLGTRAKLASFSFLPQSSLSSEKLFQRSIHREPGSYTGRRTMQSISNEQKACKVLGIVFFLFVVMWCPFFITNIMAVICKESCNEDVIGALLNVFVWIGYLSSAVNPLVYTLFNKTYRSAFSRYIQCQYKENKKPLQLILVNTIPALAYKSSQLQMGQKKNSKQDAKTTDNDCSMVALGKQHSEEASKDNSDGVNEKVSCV
T1 sequence (P14842 whole entry): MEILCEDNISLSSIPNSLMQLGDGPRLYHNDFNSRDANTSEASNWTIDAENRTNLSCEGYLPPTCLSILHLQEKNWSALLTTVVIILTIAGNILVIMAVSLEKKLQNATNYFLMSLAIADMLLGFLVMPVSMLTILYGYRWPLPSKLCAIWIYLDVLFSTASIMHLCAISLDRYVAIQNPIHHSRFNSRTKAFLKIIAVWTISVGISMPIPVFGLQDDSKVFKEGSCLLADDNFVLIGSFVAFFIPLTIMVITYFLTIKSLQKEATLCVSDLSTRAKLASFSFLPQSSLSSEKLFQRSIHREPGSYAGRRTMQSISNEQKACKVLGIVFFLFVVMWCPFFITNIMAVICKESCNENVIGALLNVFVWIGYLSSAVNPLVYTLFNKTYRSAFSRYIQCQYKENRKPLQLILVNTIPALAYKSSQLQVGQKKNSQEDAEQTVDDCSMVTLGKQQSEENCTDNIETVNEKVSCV

Turning to `Cc1ccc2[nH]c3c(c2c1)CN(CCc1c(C)nc2n(c1=O)CCCC2)CC3` [Compound 35], the IC50 on 5HT2 receptors was 3.72 nM. At human 5HT2A receptor, `Cc1nc2ccc(Br)cn2c(=O)c1CCN1CCc2[nH]c3cc(Cl)ccc3c2C1` [Compound 14] gave an IC50 of 417 nM.

For `Cc1nc2ccccn2c(=O)c1CCN1CCc2[nH]c3ccc(F)cc3c2C1` [Compound 1], the IC50 on human 5HT2A receptor was 13.2 nM; on 5HT2 receptors, 3.89 nM. With `Cc1nc(N)n(C)c(=O)c1CCN1CCc2[nH]c3ccccc3c2C1` [Compound 100], the IC50 at 5HT2 receptors was 5.01 nM. The same measure, in the same setting: the same measure for `Fc1ccc2[nH]c3c(c2c1)CN(CCCCNc1nc2ccccc2s1)CC3` [Compound 108, N-2-benzothiazolyl-8-fluoro-1,3,4,5,-tetrahydro-2H-pyrido[4,3-b]indole-2-butanamine]: 550 nM. With `Cc1nc2scc(C)n2c(=O)c1CCN1CCc2c(c3cc(F)ccc3n2-c2ccc(F)cc2)C1` [Compound 68], the IC50 on human 5HT2A receptor is 6.61 nM. `Cc1nc2sccn2c(=O)c1CCN1CCc2[nH]c3ccccc3c2C1` [Compound 38]: the IC50 is 12.6 nM at human 5HT2A receptor and 8.13 nM on 5HT2 receptors. The corresponding values for `COc1ccc2[nH]c3c(c2c1)CN(CCc1c(C)nc2n(c1=O)CCCC2)CC3` [Compound 52] are 49 nM and 28.8 nM. Molecule `Cc1nc2ccccn2c(=O)c1CCN1CCc2c(c3ccccc3n2Cc2ccccc2)C1` [Compound 69] showed an IC50 at 5HT2 receptors of 11.2 nM. With `Cc1nc2sccn2c(=O)c1CCN1CCc2[nH]c3cc(Cl)ccc3c2C1` [Compound 7], the IC50 is 22.9 nM on human 5HT2A receptor and 7.59 nM on 5HT2 receptors.

As for `Cc1nc2ccccn2c(=O)c1CCN1CCc2[nH]c3ccccc3c2C1` [Compound 37], the IC50 at human 5HT2A receptor is 44.7 nM; at 5HT2 receptors it was 3.24 nM. Consider `COc1ccc2[nH]c3c(c2c1)CN(CCc1c(C)nc2ccccn2c1=O)CC3` [Compound 53], for which the IC50 on human 5HT2A receptor is 23.4 nM; at 5HT2 receptors, 17.8 nM. The corresponding values for `Cc1nc2scc(C)n2c(=O)c1CCN1CCc2[nH]c3ccc(Cl)cc3c2C1` [Compound 23] are 2.34 nM and 1 nM. On human 5HT2A receptor, `Cc1ccn2c(=O)c(CCN3CCc4[nH]c5cc(Cl)ccc5c4C3)c(C)nc2c1` [Compound 22] showed an IC50 of 631 nM. Same read-out and setting: the same measure for `Cc1nc2n(c(=O)c1CCN1CCc3[nH]c4cc(Cl)ccc4c3C1)CCCS2` [Compound 11]: 575 nM. Turning to `Cc1nc2sccn2c(=O)c1CCN1CCc2[nH]c3ccc(F)cc3c2C1` [Compound 6], the IC50 was 6.46 nM at human 5HT2A receptor and 1 nM at 5HT2 receptors. In turn, `COc1cccn2c(=O)c(CCN3CCc4[nH]c5cc(Cl)ccc5c4C3)c(C)nc12` [Compound 20, 3-[2-(7-chloro-1,3,4,5-tetrahydro-2H-pyrido[4,3-b]indol-2-yl)ethyl]-9-methoxy-2-4-H-pyrido[1,2-a]pyrimidin-4-one] gave an IC50 on human 5HT2A receptor of 316 nM. On human 5HT2A receptor, `Cc1cc(C)n2c(=O)c(CCN3CCc4[nH]c5cc(Cl)ccc5c4C3)c(C)nc2c1.O=C(O)/C=C/C(=O)O` [Compound 18] displayed a 5HT2A-binding of 5.6. At human 5HT2A receptor, `Cc1nc2sccn2c(=O)c1CCN1CCc2[nH]c3ccc(Cl)cc3c2C1` [Compound 25] showed an IC50 of 3.31 nM.

Turning to `Cc1nc2n(c(=O)c1CCN1CCc3[nH]c4ccc(Cl)cc4c3C1)CCCS2` [Compound 24], the figures for the IC50 on human 5HT2A receptor and at 5HT2 receptors were 8.51 nM and 1.95 nM, respectively. The molecule `Cc1nc2ccc(Cl)cn2c(=O)c1CCN1CCc2[nH]c3cc(Cl)ccc3c2C1` [Compound 17] gave an IC50 on human 5HT2A receptor of 251 nM. Take `Cc1nc2n(c(=O)c1CCN1CCc3[nH]c4ccc(F)cc4c3C1)CCCS2` [Compound 2, 7-[2-(8-fluoro-1,3,4,5-tetrahydro-2H-pyrido[4,3-b]indol-2-yl)ethyl]-3,4-dihydro-8-methyl-2H,6H-pyrimido[2,1-b][1,3]-thiazin-6-one]: at 5HT2 receptors, the IC50 was 36.3 nM. As to `Cc1nc2scc(C)n2c(=O)c1CCN1CCc2[nH]c3ccccc3c2C1` [Compound 39], the IC50 is 5.01 nM at human 5HT2A receptor and 2.63 nM on 5HT2 receptors.

As for `Cc1nc2n(c(=O)c1CCN1CCc3[nH]c4ccc(Cl)cc4c3C1)CCS2` [Compound 26], the IC50 at human 5HT2A receptor is 6.17 nM. For `Cc1nc2n(c(=O)c1CCN1CCc3[nH]c4cc(Cl)ccc4c3C1)CCCC2` [Compound 10], the IC50 was 457 nM at human 5HT2A receptor and 25.7 nM at 5HT2 receptors.

Regarding `Cc1nc2n(c(=O)c1CCN1CCc3[nH]c4cc(Cl)ccc4c3C1)CCS2` [Compound 12], at human 5HT2A receptor, the IC50 is 617 nM. On to `Cc1ccc2[nH]c3c(c2c1)CN(CCc1c(C)nc2scc(C)n2c1=O)CC3` [Compound 32], for which the IC50 at human 5HT2A receptor was 4.47 nM; on 5HT2 receptors, 0.398 nM. As for `Cc1nc2c(Cl)cc(C(F)(F)F)cn2c(=O)c1CCN1CCc2[nH]c3cc(Cl)ccc3c2C1` [Compound 15], the IC50 on human 5HT2A receptor is 10000 nM. The same measure, in the same setting: the same measure for `Cc1nc2n(c(=O)c1CCN1CCc3c(c4ccccc4n3-c3ccccc3)C1)CCCC2` [Compound 89]: 6.92 nM. In the case of `Cc1nc2ccccn2c(=O)c1CCN1CCc2[nH]c3ccc(Cl)cc3c2C1` [Compound 28], the IC50 on human 5HT2A receptor was 7.59 nM; on 5HT2 receptors, 1.23 nM.

Regarding `Cc1nc2ccccn2c(=O)c1CCN1CCc2[nH]c3cc(Cl)ccc3c2C1` [Compound 9], the values for the IC50 at human 5HT2A receptor and at 5HT2 receptors were 57.5 nM and 9.55 nM, respectively. Turning to `Cc1nc2n(c(=O)c1CCN1CCc3[nH]c4ccc(F)cc4c3C1)CCCC2` [Compound 4], the IC50 on 5HT2 receptors was 12.6 nM.

Regarding `Cc1ccc2[nH]c3c(c2c1)CN(CCc1c(C)nc2sccn2c1=O)CC3` [Compound 30], the IC50 on human 5HT2A receptor was 8.32 nM; at 5HT2 receptors, 1.62 nM.

With `Cc1ccc2[nH]c3c(c2c1)CN(CCc1c(C)nc2n(c1=O)CCCC2)CC3` [Compound 36], the IC50 at human 5HT2A receptor was 316 nM. Take `Cc1nc2n(c(=O)c1CCN1CCc3c(c4cc(F)ccc4n3-c3ccc(F)cc3)C1)CCS2` [Compound 67]: the IC50 is 4.37 nM at human 5HT2A receptor and 1.82 nM at 5HT2 receptors. Consider `Cc1nc2c(C)cccn2c(=O)c1CCN1CCc2[nH]c3cc(Cl)ccc3c2C1` [Compound 13], for which the half-maximal inhibitory concentration (IC50) on human 5HT2A receptor was 1480 nM. Still for that read-out and setting: the same measure for `Cc1nc2n(c(=O)c1CCN1CCc3c(c4ccccc4n3-c3ccccc3)C1)CCS2` [Compound 86]: 4.57 nM; for `Cc1ccc2nc(C)c(CCN3CCc4[nH]c5cc(Cl)ccc5c4C3)c(=O)n2c1` [Compound 16]: 126 nM. At 5HT2 receptors, `Cc1nc2n(c(=O)c1CCN1CCc3[nH]c4ccc(Cl)cc4c3C1)CCCC2` [Compound 27] showed an IC50 of 2.82 nM. Consider `Cc1nc2n(c(=O)c1CCN1CCc3[nH]c4ccccc4c3C1)CCS2` [Compound 41], for which the IC50 at 5HT2 receptors was 14.5 nM.

Consider `Cc1nc2scc(C)n2c(=O)c1CCN1CCc2[nH]c3ccc(F)cc3c2C1` [Compound 5], for which, at human 5HT2A receptor, the IC50 was 3.09 nM. Consider `Cc1nc2scc(C)n2c(=O)c1CCN1CCc2[nH]c3cc(Cl)ccc3c2C1` [Compound 8], for which the IC50 on human 5HT2A receptor is 9.77 nM; on 5HT2 receptors, 4.27 nM.

Take `Cc1ccc2[nH]c3c(c2c1)CN(CCc1c(C)nc2n(c1=O)CCCS2)CC3` [Compound 33]: the IC50 at 5HT2 receptors is 4.47 nM.
